pEC50: −log10 of the molar value.
What follows are compounds tested against T1, human GPR119 (Homo sapiens, UniProt Q8TDV5) (assay: Functional cellular assay measuring GPR119-mediated cAMP release (HTRF) in HEK-293 cells stably expressing recombinant human GPR119). Conditions: cAMP response, cell line expressing human GPR119, 30 minutes at room temperature.
T1 construct: expressed in transfected cells
T1 sequence (Q8TDV5 1-335): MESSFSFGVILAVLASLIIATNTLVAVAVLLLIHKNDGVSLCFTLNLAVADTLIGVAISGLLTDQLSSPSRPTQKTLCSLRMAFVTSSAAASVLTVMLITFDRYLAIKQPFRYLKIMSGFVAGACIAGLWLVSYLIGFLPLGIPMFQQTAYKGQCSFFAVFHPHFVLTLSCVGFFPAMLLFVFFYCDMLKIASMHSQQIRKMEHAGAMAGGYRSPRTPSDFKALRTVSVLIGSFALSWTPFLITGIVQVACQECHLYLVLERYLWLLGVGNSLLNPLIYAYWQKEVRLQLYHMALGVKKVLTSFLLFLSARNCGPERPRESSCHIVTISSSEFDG
Format: cell-based
Outline: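 HEK-293 cells stably expressing recombinant human GPR119, suspended at 400000 cells/mL in HBSS/20 mM HEPES/0.1% BSA/2 mM IBMX, exposed to compound for 30 minutes at room temperature. cAMP detected by HTRF (665/620 nm ratio) after 1 h with reagents in lysis buffer. EC50 taken as concentration giving 50% of maximal activation.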

| SMILES | pEC50 |
| --- | --- |
| CCOc1ccc(O[C@@H]2CCN(c3cc(F)c4c(c3)C(=O)N(CC(=O)NCCOC)C4)C2=O)cn1 [Example 4-18, 2-[6-[(3R)-3-[(6-ethoxy-3-pyridyl)oxy]-2-oxo-pyrrolidin-1-yl]-4-fluoro-1-oxo-isoindolin-2-yl]-N-(2-methoxyethyl)acetamide] | 6.42 |
| CCOc1ccc(O[C@@H]2CCN(c3cc(F)c4c(c3)C(=O)N(CC(=O)N3CCC(O)CC3)C4)C2=O)cn1 [Example 4-19, 6-[(3R)-3-[(6-ethoxy-3-pyridyl)oxy]-2-oxo-pyrrolidin-1-yl]-4-fluoro-2-[2-(4-hydroxy-1-piperidyl)-2-oxo-ethyl]isoindolin-1-one] | 6.53 |
| COCCNC(=O)CN1Cc2c(F)cc(N3CC[C@@H](Oc4ccc(OCCC5CC5)nc4)C3=O)cc2C1=O [Example 4-20, 2-[6-[(3R)-3-[[6-(2-cyclopropylethoxy)-3-pyridyl]oxy]-2-oxo-pyrrolidin-1-yl]-4-fluoro-1-oxo-isoindolin-2-yl]-N-(2-methoxyethyl)acetamide] | 7.21 |
| CCOc1ccc(O[C@@H]2CCN(c3cc(F)c4c(c3)C(=O)N(CC(=O)N(C)C)C4)C2=O)cn1 [Example 4-21, 2-[6-[(3R)-3-[(6-ethoxy-3-pyridyl)oxy]-2-oxo-pyrrolidin-1-yl]-4-fluoro-1-oxo-isoindolin-2-yl]-N,N-dimethyl-acetamide] | 6.65 |
| O=C(CN1Cc2c(F)cc(N3CC[C@@H](Oc4ccc(OCC5CC5)nc4)C3=O)cc2C1=O)N1CCC(O)CC1 [Example 4-22, 6-[(3R)-3-[[6-(cyclopropylmethoxy)-3-pyridyl]oxy]-2-oxo-pyrrolidin-1-yl]-4-fluoro-2-[2-(4-hydroxy-1-piperidyl)-2-oxo-ethyl]isoindolin-1-one] | 7.06 |
| COCCNC(=O)CN1Cc2c(F)cc(N3CC[C@@H](Oc4ccc(OCC5CC5)nc4)C3=O)cc2C1=O [Example 4-23, 2-[6-[(3R)-3-[[6-(cyclopropylmethoxy)-3-pyridyl]oxy]-2-oxo-pyrrolidin-1-yl]-4-fluoro-1-oxo-isoindolin-2-yl]-N-(2-methoxyethyl)acetamide] | 6.80 |
| O=C(CN1Cc2c(F)cc(N3CC[C@@H](Oc4ccc(OCC5CC5)nc4)C3=O)cc2C1=O)NCCO [Example 4-24, 2-[6-[(3R)-3-[[6-(cyclopropylmethoxy)-3-pyridyl]oxy]-2-oxo-pyrrolidin-1-yl]-4-fluoro-1-oxo-isoindolin-2-yl]-N-(2-hydroxyethyl)acetamide] | 6.58 |
| CN(C)C(=O)CN1Cc2c(F)cc(N3CC[C@@H](Oc4ccc(OCC5CC5)nc4)C3=O)cc2C1=O [Example 4-25, 2-[6-[(3R)-3-[[6-(cyclopropylmethoxy)-3-pyridyl]oxy]-2-oxo-pyrrolidin-1-yl]-4-fluoro-1-oxo-isoindolin-2-yl]-N,N-dimethyl-acetamide] | 7.10 |
| O=C(CN1Cc2c(F)cc(N3CC[C@@H](Oc4ccc(OCCC5CC5)nc4)C3=O)cc2C1=O)N1CCCC1 [Example 4-26, 6-[(3R)-3-[[6-(2-cyclopropylethoxy)-3-pyridyl]oxy]-2-oxo-pyrrolidin-1-yl]-4-fluoro-2-(2-oxo-2-pyrrolidin-1-yl-ethyl)isoindolin-1-one] | 7.32 |
| CN(C)C(=O)CN1Cc2c(F)cc(N3CC[C@@H](Oc4ccc(OCCC5CC5)nc4)C3=O)cc2C1=O [Example 4-27, 2-[6-[(3R)-3-[[6-(2-cyclopropylethoxy)-3-pyridyl]oxy]-2-oxo-pyrrolidin-1-yl]-4-fluoro-1-oxo-isoindolin-2-yl]-N,N-dimethyl-acetamide] | 7.34 |
| CNC(=O)CN1Cc2c(F)cc(N3CC[C@@H](Oc4ccc(OCCC5CC5)nc4)C3=O)cc2C1=O [Example 4-28, 2-[6-[(3R)-3-[[6-(2-cyclopropylethoxy)-3-pyridyl]oxy]-2-oxo-pyrrolidin-1-yl]-4-fluoro-1-oxo-isoindolin-2-yl]-N-methyl-acetamide] | 7.31 |
| O=C(CN1Cc2c(F)cc(N3CC[C@@H](Oc4ccc(OCCC5CC5)nc4)C3=O)cc2C1=O)NCCO [Example 4-29, 2-[6-[(3R)-3-[[6-(2-cyclopropylethoxy)-3-pyridyl]oxy]-2-oxo-pyrrolidin-1-yl]-4-fluoro-1-oxo-isoindolin-2-yl]-N-(2-hydroxyethyl)acetamide] | 6.80 |
| O=C(CN1Cc2ccc(N3CC[C@@H](Oc4ccc(OCC5CC5)nc4)C3=O)cc2C1=O)NCc1nnn[nH]1 [Example 4-30, 2-[6-[(3R)-3-[[6-(cyclopropylmethoxy)-3-pyridyl]oxy]-2-oxo-pyrrolidin-1-yl]-1-oxo-isoindolin-2-yl]-N-(1H-tetrazol-5-ylmethyl)acetamide] | 6.13 |
| COC(=O)CNC(=O)CN1Cc2ccc(N3CC[C@@H](Oc4ccc(OCC5CC5)nc4)C3=O)cc2C1=O [Example 4-31, methyl 2-[[2-[6-[(3R)-3-[[6-(cyclopropylmethoxy)-3-pyridyl]oxy]-2-oxo-pyrrolidin-1-yl]-1-oxo-isoindolin-2-yl]acetyl]amino]acetate] | 6.82 |
| O=C(CN1Cc2ccc(N3CC[C@@H](Oc4ccc(OCC5CC5)nc4)C3=O)cc2C1=O)NC(CO)CO [Example 4-32, 2-[6-[(3R)-3-[[6-(cyclopropylmethoxy)-3-pyridyl]oxy]-2-oxo-pyrrolidin-1-yl]-1-oxo-isoindolin-2-yl]-N-[2-hydroxy-1-(hydroxymethyl)ethyl]acetamide] | 6.35 |
| O=C(CN1Cc2ccc(N3CC[C@@H](Oc4ccc(OCC5CC5)nc4)C3=O)cc2C1=O)N(CCO)CCO [Example 4-33, 2-[6-[(3R)-3-[[6-(cyclopropylmethoxy)-3-pyridyl]oxy]-2-oxo-pyrrolidin-1-yl]-1-oxo-isoindolin-2-yl]-N,N-bis(2-hydroxyethyl)acetamide] | 6.22 |
| O=C(CN1Cc2ccc(N3CC[C@@H](Oc4ccc(OCC5CC5)nc4)C3=O)cc2C1=O)NC[C@H](O)CO [Example 4-34, 2-[6-[(3R)-3-[[6-(cyclopropylmethoxy)-3-pyridyl]oxy]-2-oxo-pyrrolidin-1-yl]-1-oxo-isoindolin-2-yl]-N-[(2S)-2,3-dihydroxypropyl]acetamide] | 6.27 |
| O=C(CN1Cc2ccc(N3CC[C@@H](Oc4ccc(OCC5CC5)nc4)C3=O)cc2C1=O)NC[C@@H](O)CO [Example 4-35, 2-[6-[(3R)-3-[[6-(cyclopropylmethoxy)-3-pyridyl]oxy]-2-oxo-pyrrolidin-1-yl]-1-oxo-isoindolin-2-yl]-N-[(2R)-2,3-dihydroxypropyl]acetamide] | 6.25 |
| O=C(CN1Cc2ccc(N3CC[C@@H](Oc4ccc(OCC(F)(F)F)nc4)C3=O)cc2C1=O)NC1CC1 [Example 4-36, N-cyclopropyl-2-[1-oxo-6-[(3R)-2-oxo-3-[[6-(2,2,2-trifluoroethoxy)-3-pyridyl]oxy]pyrrolidin-1-yl]isoindolin-2-yl]acetamide] | 6.25 |
| CC(C)NC(=O)CN1Cc2ccc(N3CC[C@@H](Oc4ccc(OCC(F)(F)F)nc4)C3=O)cc2C1=O [Example 4-37, N-isopropyl-2-[1-oxo-6-[(3R)-2-oxo-3-[[6-(2,2,2-trifluoroethoxy)-3-pyridyl]oxy]pyrrolidin-1-yl]isoindolin-2-yl]acetamide] | 6.63 |
| CNC(=O)CN1Cc2ccc(N3CC[C@@H](Oc4ccc(OCC(F)(F)F)nc4)C3=O)cc2C1=O [Example 4-38, N-methyl-2-[1-oxo-6-[(3R)-2-oxo-3-[[6-(2,2,2-trifluoroethoxy)-3-pyridyl]oxy]pyrrolidin-1-yl]isoindolin-2-yl]acetamide] | 6.88 |
| CCNC(=O)CN1Cc2ccc(N3CC[C@@H](Oc4ccc(OCC(F)(F)F)nc4)C3=O)cc2C1=O [Example 4-39, N-ethyl-2-[1-oxo-6-[(3R)-2-oxo-3-[[6-(2,2,2-trifluoroethoxy)-3-pyridyl]oxy]pyrrolidin-1-yl]isoindolin-2-yl]acetamide] | 6.69 |
| O=C(CN1Cc2ccc(N3CC[C@@H](Oc4ccc(OCC(F)(F)F)nc4)C3=O)cc2C1=O)N1CCCC1 [Example 4-40, 2-(2-oxo-2-pyrrolidin-1-yl-ethyl)-6-[(3R)-2-oxo-3-[[6-(2,2,2-trifluoroethoxy)-3-pyridyl]oxy]pyrrolidin-1-yl]isoindolin-1-one] | 7.37 |
| CCN(CC)C(=O)CN1Cc2ccc(N3CC[C@@H](Oc4ccc(OCC(F)(F)F)nc4)C3=O)cc2C1=O [Example 4-41, N,N-diethyl-2-[1-oxo-6-[(3R)-2-oxo-3-[[6-(2,2,2-trifluoroethoxy)-3-pyridyl]oxy]pyrrolidin-1-yl]isoindolin-2-yl]acetamide] | 7.40 |
| O=C(CN1Cc2ccc(N3CC[C@@H](Oc4ccc(OCC(F)(F)F)nc4)C3=O)cc2C1=O)N1CCC1 [Example 4-42, 2-[2-(azetidin-1-yl)-2-oxo-ethyl]-6-[(3R)-2-oxo-3-[[6-(2,2,2-trifluoroethoxy)-3-pyridyl]oxy]pyrrolidin-1-yl]isoindolin-1-one] | 7.41 |
| CCOc1ccc(O[C@@H]2CCN(c3cc(F)c4c(c3)C(=O)N(CC#N)C4)C2=O)cn1 [Example 5-01, 2-[6-[(3R)-3-[(6-ethoxy-3-pyridyl)oxy]-2-oxo-pyrrolidin-1-yl]-4-fluoro-1-oxo-isoindolin-2-yl]acetonitrile] | 7.17 |
| CCOc1ccc(O[C@@H]2CCN(c3cc(F)c4c(c3)C(=O)N(CC(=O)O)C4)C2=O)cn1 [Example 5-02, 2-[6-[(3R)-3-[(6-ethoxy-3-pyridyl)oxy]-2-oxo-pyrrolidin-1-yl]-4-fluoro-1-oxo-isoindolin-2-yl]acetic acid] | 5.22 |

Reference: patent US9908868B2, “Isoindolinone compounds as GPR119 modulators for the treatment of diabetes, obesity, dyslipidemia and related disorders” (SANOFI, priority 2014, dated 2018)
